Results from BindingDB's records for doi:10.1016/j.bmcl.2008.02.026 (Irbm/Merck Research Laboratories, 2008).

Target: T1, Histone deacetylase 6 (Homo sapiens, UniProt Q9UBN7)
T1 sequence (Q9UBN7 whole entry): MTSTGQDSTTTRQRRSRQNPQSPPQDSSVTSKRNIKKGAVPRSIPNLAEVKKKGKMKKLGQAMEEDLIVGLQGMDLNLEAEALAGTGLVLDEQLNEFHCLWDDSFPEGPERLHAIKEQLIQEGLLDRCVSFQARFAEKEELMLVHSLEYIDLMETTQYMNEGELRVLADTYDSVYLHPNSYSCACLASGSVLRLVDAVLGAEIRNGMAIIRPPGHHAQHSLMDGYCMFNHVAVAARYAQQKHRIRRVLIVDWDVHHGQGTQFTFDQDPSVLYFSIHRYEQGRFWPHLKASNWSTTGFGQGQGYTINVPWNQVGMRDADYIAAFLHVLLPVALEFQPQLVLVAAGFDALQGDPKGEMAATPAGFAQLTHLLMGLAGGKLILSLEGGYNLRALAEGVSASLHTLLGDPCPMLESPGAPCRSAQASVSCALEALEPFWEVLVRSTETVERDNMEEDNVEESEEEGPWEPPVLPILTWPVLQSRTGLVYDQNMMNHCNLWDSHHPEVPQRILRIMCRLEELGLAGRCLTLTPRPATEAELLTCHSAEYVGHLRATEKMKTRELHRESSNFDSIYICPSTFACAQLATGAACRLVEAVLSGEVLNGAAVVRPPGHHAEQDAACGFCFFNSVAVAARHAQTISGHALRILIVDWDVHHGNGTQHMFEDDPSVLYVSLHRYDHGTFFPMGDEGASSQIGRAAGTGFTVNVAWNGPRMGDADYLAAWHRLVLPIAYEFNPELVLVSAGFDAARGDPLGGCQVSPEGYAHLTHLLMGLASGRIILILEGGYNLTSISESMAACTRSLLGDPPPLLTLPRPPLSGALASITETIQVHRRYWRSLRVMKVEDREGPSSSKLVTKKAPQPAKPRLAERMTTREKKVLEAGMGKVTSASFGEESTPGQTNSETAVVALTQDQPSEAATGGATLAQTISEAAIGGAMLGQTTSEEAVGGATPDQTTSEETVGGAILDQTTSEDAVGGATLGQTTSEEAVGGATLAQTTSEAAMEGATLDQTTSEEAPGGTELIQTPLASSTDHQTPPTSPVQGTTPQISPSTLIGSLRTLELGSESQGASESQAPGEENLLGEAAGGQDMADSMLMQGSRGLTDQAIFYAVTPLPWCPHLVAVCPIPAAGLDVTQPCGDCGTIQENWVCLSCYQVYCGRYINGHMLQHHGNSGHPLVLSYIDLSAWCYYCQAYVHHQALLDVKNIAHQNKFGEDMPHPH
Experiment: HDAC Activity Assay
Details: 25 °C
Procedure: The Fluor-de-Lys HDAC activity assay kit (Biomol) was used. Purified recombinant HDAC enzyme was incubated with Fluor-de-Lys substrate in the presence of test compounds. Fluor-de-Lys Developer was then added, and the mixture was incubated for another 10 min at room temperature. Fluorescence was measured using a fluorescent plate reader, with excitation 360 nm and emission 460 nm.

Compound: NC(=O)c1ccc(C(=O)C(F)(F)F)cn1 [5-(2,2,2-trifluoroacetyl)pyridine-2-carboxamide]
- IC50: 4.2 µM
